The supplement of paper PMC13380429

How the values were obtained:
U2OS [1] = test: cell viability relative to DMSO; higher = less toxic; settings: 72 h
Calu-3 [2] = test: as above; settings: 72 h
HepG2 [3] = test: as above; settings: 72 h
Caco-2 [4] = test: as above; settings: 72 h
Vero E6 [5] = test: as above; settings: 72 h
U2OS [6] = test: drug sensitivity score (DSS) for viability; higher = more toxic; extreme values may be limits of the assay; settings: 72 h
Calu-3 [7] = test: as above; settings: 72 h
HepG2 [8] = test: as above; settings: 72 h
Caco-2 [9] = test: as above; settings: 72 h
Vero E6 [10] = test: as above; settings: 72 h
[11] = system: A549-ACE2 infected with SARS-CoV-2; test: SARS-CoV-2 infection rate relative to DMSO; higher = more infection; settings: 24 h
[12] = system: A549-ACE2 infected with SARS-CoV-2; test: morphology score (similarity to uninfected cells); higher = more like uninfected cells; settings: 24 h
[13] = system: A549-ACE2 infected with SARS-CoV-2; test: cell count relative to DMSO; higher = less toxic; settings: 24 h
U2OS [14] = test: relative viability EC50 (midpoint between 100% and the lowest measured viability); higher = less toxic; settings: 72 h
Vero E6 [15] = test: as above; settings: 72 h
A549-ACE2 [16] = test: drug-induced phospholipidosis relative to tamoxifen; higher = more phospholipidosis
A549-ACE2 [17] = test: phospholipidosis EC50; higher = less potent phospholipidosis inducer
Calu-3 [18] = test: relative viability EC50 (midpoint between 100% and the lowest measured viability); higher = less toxic; settings: 72 h
HepG2 [19] = test: as above; settings: 72 h
Caco-2 [20] = test: as above; settings: 72 h

Molecule `NCCC(Oc1ccc(C(F)(F)F)cc1)c1ccccc1` (stereo unspecified) [norfluoxetine] has a cell viability (U2OS [1]; 1 nM) of 96.9%, a cell viability (U2OS [1]; 10 nM) of 102% and a cell viability (U2OS [1]; 100 nM) of 108%. It also gave a cell viability (U2OS [1]; 1000 nM) of 102%, a cell viability (U2OS [1]; 10000 nM) of 90.9% and a cell viability (Calu-3 [2]; 1 nM) of 96.4%. The cell viability (Calu-3 [2]; 10 nM) was 108%, the cell viability (Calu-3 [2]; 100 nM) was 100% and the cell viability (Calu-3 [2]; 1000 nM) was 93.6%. The cell viability (Calu-3 [2]; 10000 nM) was 54.3%, the cell viability (HepG2 [3]; 1 nM) was 93.6% and the cell viability (HepG2 [3]; 10 nM) was 92.5%. The cell viability (HepG2 [3]; 100 nM) was 107%, the cell viability (HepG2 [3]; 1000 nM) was 73.7% and the cell viability (HepG2 [3]; 10000 nM) was 64.7%. For the same molecule, the cell viability (Caco-2 [4]; 1 nM) was 90%, the cell viability (Caco-2 [4]; 10 nM) was 104% and the cell viability (Caco-2 [4]; 100 nM) was 104%. The cell viability (Caco-2 [4]; 1000 nM) was 103%, the cell viability (Caco-2 [4]; 10000 nM) was 63.3% and the cell viability (Vero E6 [5]; 1 nM) was 106%. For the same molecule, the cell viability (Vero E6 [5]; 10 nM) was 94.5%, the cell viability (Vero E6 [5]; 100 nM) was 99.8% and the cell viability (Vero E6 [5]; 1000 nM) was 95.7%. For the same molecule, the cell viability (Vero E6 [5]; 10000 nM) was 84.4%, the drug sensitivity score (U2OS [6]) was 0 and the drug sensitivity score (Calu-3 [7]) was 3.4. It also gave a drug sensitivity score (HepG2 [8]) of 4.7, a drug sensitivity score (Caco-2 [9]) of 1.5 and a drug sensitivity score (Vero E6 [10]) of 0.7. It also gave an SARS-CoV-2 infection rate ([11]; 0.3 µM) of 99%, an SARS-CoV-2 infection rate ([11]; 3 µM) of 84% and an SARS-CoV-2 infection rate ([11]; 10 µM) of 17%. The SARS-CoV-2 infection rate ([11]; 30 µM) was 46%, the morphology score ([12]; 0.3 µM) was 0.13 and the morphology score ([12]; 3 µM) was 0.26. The morphology score ([12]; 10 µM) was 0.86, the morphology score ([12]; 30 µM) was 0 and the cell count ([13]; 0.3 µM) was 99%. For the same molecule, the cell count ([13]; 3 µM) was 103%, the cell count ([13]; 10 µM) was 128% and the cell count ([13]; 30 µM) was 73%. For the same molecule, the “relative viability EC50” value (U2OS [14]) was over 10 µM, the “relative viability EC50” value (Vero E6 [15]) was over 10 µM and the drug-induced phospholipidosis (A549-ACE2 [16]; 0.3 µM, 24 h) was -1.03%. It also gave a drug-induced phospholipidosis (A549-ACE2 [16]; 0.3 µM, 48 h) of 1.11%, a drug-induced phospholipidosis (A549-ACE2 [16]; 0.3 µM, 72 h) of 2.19% and a drug-induced phospholipidosis (A549-ACE2 [16]; 0.833333 µM, 24 h) of -3.68%. It also gave a drug-induced phospholipidosis (A549-ACE2 [16]; 0.833333 µM, 48 h) of -2.85%, a drug-induced phospholipidosis (A549-ACE2 [16]; 0.833333 µM, 72 h) of -3.51% and a drug-induced phospholipidosis (A549-ACE2 [16]; 3.33333 µM, 24 h) of 19.4%. It also gave a drug-induced phospholipidosis (A549-ACE2 [16]; 3.33333 µM, 48 h) of 18.7%, a drug-induced phospholipidosis (A549-ACE2 [16]; 3.33333 µM, 72 h) of 8.94% and a drug-induced phospholipidosis (A549-ACE2 [16]; 6.66667 µM, 24 h) of 73%. For the same molecule, the drug-induced phospholipidosis (A549-ACE2 [16]; 6.66667 µM, 48 h) was 79.1%, the drug-induced phospholipidosis (A549-ACE2 [16]; 6.66667 µM, 72 h) was 50.5% and the drug-induced phospholipidosis (A549-ACE2 [16]; 10 µM, 24 h) was 85.6%. It also gave a drug-induced phospholipidosis (A549-ACE2 [16]; 10 µM, 48 h) of 101%, a drug-induced phospholipidosis (A549-ACE2 [16]; 10 µM, 72 h) of 78.9% and a drug-induced phospholipidosis (A549-ACE2 [16]; 30 µM, 24 h) of 130%. The drug-induced phospholipidosis (A549-ACE2 [16]; 30 µM, 48 h) was 132%, the drug-induced phospholipidosis (A549-ACE2 [16]; 30 µM, 72 h) was 153% and the “phospholipidosis EC50” value (A549-ACE2 [17]; 24 h) was 6.78 µM. For the same molecule, the “phospholipidosis EC50” value (A549-ACE2 [17]; 48 h) was 5.96 µM and the “phospholipidosis EC50” value (A549-ACE2 [17]; 72 h) was 10.7 µM.
`c1cc2c(cc1C1CCCCC1)c1c3n2CCNC3CCC1` (stereo unspecified) [tetrindole] gave a cell viability (U2OS [1]; 1 nM) of 94.8%, a cell viability (U2OS [1]; 10 nM) of 104% and a cell viability (U2OS [1]; 100 nM) of 97.6%. For the same molecule, the cell viability (U2OS [1]; 1000 nM) was 99.5%, the cell viability (U2OS [1]; 10000 nM) was 24.1% and the cell viability (Calu-3 [2]; 1 nM) was 91.3%. The cell viability (Calu-3 [2]; 10 nM) was 94.9%, the cell viability (Calu-3 [2]; 100 nM) was 93.8% and the cell viability (Calu-3 [2]; 1000 nM) was 88.7%. It also gave a cell viability (Calu-3 [2]; 10000 nM) of 0.8%, a cell viability (HepG2 [3]; 1 nM) of 101% and a cell viability (HepG2 [3]; 10 nM) of 107%. It also gave a cell viability (HepG2 [3]; 100 nM) of 95.8%, a cell viability (HepG2 [3]; 1000 nM) of 83.2% and a cell viability (HepG2 [3]; 10000 nM) of 0.5%. The cell viability (Caco-2 [4]; 1 nM) was 101%, the cell viability (Caco-2 [4]; 10 nM) was 92.3% and the cell viability (Caco-2 [4]; 100 nM) was 92.9%. The cell viability (Caco-2 [4]; 1000 nM) was 98.5%, the cell viability (Caco-2 [4]; 10000 nM) was 6.9% and the cell viability (Vero E6 [5]; 1 nM) was 97.9%. For the same molecule, the cell viability (Vero E6 [5]; 10 nM) was 91.4%, the cell viability (Vero E6 [5]; 100 nM) was 97.1% and the cell viability (Vero E6 [5]; 1000 nM) was 93.9%. For the same molecule, the cell viability (Vero E6 [5]; 10000 nM) was 1.3%, the drug sensitivity score (U2OS [6]) was 4.3 and the drug sensitivity score (Calu-3 [7]) was 7.4. It also gave a drug sensitivity score (HepG2 [8]) of 8.3, a drug sensitivity score (Caco-2 [9]) of 5.4 and a drug sensitivity score (Vero E6 [10]) of 6.4. The SARS-CoV-2 infection rate ([11]; 0.1 µM) was 102%, the SARS-CoV-2 infection rate ([11]; 0.3 µM) was 96% and the SARS-CoV-2 infection rate ([11]; 1 µM) was 77%. The SARS-CoV-2 infection rate ([11]; 3 µM) was 28%, the morphology score ([12]; 0.1 µM) was 0.02 and the morphology score ([12]; 0.3 µM) was 0.07. For the same molecule, the morphology score ([12]; 1 µM) was 0.29, the morphology score ([12]; 3 µM) was 0.87 and the cell count ([13]; 0.1 µM) was 102%. For the same molecule, the cell count ([13]; 0.3 µM) was 101%, the cell count ([13]; 1 µM) was 102% and the cell count ([13]; 3 µM) was 117%. The “relative viability EC50” value (U2OS [14]) was 3.11 µM, the “relative viability EC50” value (Calu-3 [18]) was 2.22 µM and the “relative viability EC50” value (HepG2 [19]) was 1.88 µM. For the same molecule, the “relative viability EC50” value (Caco-2 [20]) was 3.05 µM, the “relative viability EC50” value (Vero E6 [15]) was 2.68 µM and the drug-induced phospholipidosis (A549-ACE2 [16]; 0.3 µM, 24 h) was 5.21%. For the same molecule, the drug-induced phospholipidosis (A549-ACE2 [16]; 0.3 µM, 48 h) was 7.95%, the drug-induced phospholipidosis (A549-ACE2 [16]; 0.3 µM, 72 h) was 7.78% and the drug-induced phospholipidosis (A549-ACE2 [16]; 0.833333 µM, 24 h) was 10.2%. The drug-induced phospholipidosis (A549-ACE2 [16]; 0.833333 µM, 48 h) was 8.82%, the drug-induced phospholipidosis (A549-ACE2 [16]; 0.833333 µM, 72 h) was 3.52% and the drug-induced phospholipidosis (A549-ACE2 [16]; 3.33333 µM, 24 h) was 71.6%. For the same molecule, the drug-induced phospholipidosis (A549-ACE2 [16]; 3.33333 µM, 48 h) was 80.8%, the drug-induced phospholipidosis (A549-ACE2 [16]; 3.33333 µM, 72 h) was 72.2% and the drug-induced phospholipidosis (A549-ACE2 [16]; 6.66667 µM, 24 h) was 84.5%. For the same molecule, the drug-induced phospholipidosis (A549-ACE2 [16]; 6.66667 µM, 48 h) was 101%, the drug-induced phospholipidosis (A549-ACE2 [16]; 6.66667 µM, 72 h) was 101% and the drug-induced phospholipidosis (A549-ACE2 [16]; 10 µM, 24 h) was 84.9%. For the same molecule, the drug-induced phospholipidosis (A549-ACE2 [16]; 10 µM, 48 h) was 115%, the drug-induced phospholipidosis (A549-ACE2 [16]; 10 µM, 72 h) was 122% and the drug-induced phospholipidosis (A549-ACE2 [16]; 30 µM, 24 h) was 215%. For the same molecule, the “phospholipidosis EC50” value (A549-ACE2 [17]; 24 h) was 6.5 µM, the “phospholipidosis EC50” value (A549-ACE2 [17]; 48 h) was 2.52 µM and the “phospholipidosis EC50” value (A549-ACE2 [17]; 72 h) was 3.19 µM.
